According to patent US20250275976A1, “Methods of Treating Neuroinflammatory Conditions” (Athira Pharma, Inc., priority 2022, published 2025):
Several values for one entry are separate records, joined by “and”; a condition that tells them apart may be missing. Identical values can stand only once. Entries after “also recorded” stand apart in the source; their conditions may differ. Like-named read-outs stand apart in the source and are kept apart here. Square brackets hold non-standard residues; d marks the D form. Peptide text beside a SMILES is read from it. * marks the point of attachment. pY = N[CH](Cc1ccc(OP(=O)(O)O)cc1)C(=O)O; Hexanoyl = CCCCCC(=O)*; Ahx = NCCCCCC(=O)O

Legend:
[1] = test system: Rat primary cortical neuron cultures; details: LPS 24 h
[2] = test system: Rat primary cortical neuron cultures; assay: Neuroprotection of rat cortical neurons against LPS challenge (Cell Titer-Glo); details: at at least one dose tested
male CD-1 mice = assay: T-maze spontaneous alternation, LPS-induced cognitive deficit; type: in vivo, mouse; details: for Spontaneous alternation (%) Mean: LPS 250 μg/kg i.p.; for Recovery (%): saline/vehicle = 100%, LPS/vehicle = 0%; for Reversal of LPS-induced cognitive deficit in T-maze (result in words): ANOVA, Fisher's PLSD, p<0.05, doses as in the value
From the text: Encephalitis refers to inflammation of the brain that may result in brain swelling fever, headache, confusion, and seizures. The source of neuroinflammation can vary widely, including due to viral, bacterial, parasitic, or fungal infection or due to autoimmune diseases. Lipopolysaccharide (LPS) is a bacterial endotoxin that induces an intense neuroinflammatory reaction and has been associated with cognitive decline. The ability of Compound A19 to reverse cognitive decline induced by LPS in a mouse model of encephalitis was studied using a T-maze assay. In a separate substantially similar assay, Compounds 1a and 5a were also assessed.
Spontaneous and continuous alternation is the innate tendency of rodents to alternate free choices in a T-maze (T-CAT) over a series of successive runs. This sequential procedure relies on working memory and is sensitive to various pharmacological manipulations affecting memory processes. The present studies were conducted to evaluate the abilities of Compound A19, Compound 1a and Compound 5a to reverse LPS-induced cognitive deficit in the T-maze assay.
Compound A19 was dissolved in 0.9% NaCl (saline) and vortexed periodically until complete dissolution and with the pH adjusted between 7.4 and 7.8. Compound A19 was used in concentrations of 0.125, 0.1, 0.05, 0.025 and 0.0125 mg/ml which when given in a volume of 10 ml/kg result in doses of 1.25, 1, 0.5, 0.25 and 0.125 mg/kg, respectively. Compound 1a was dissolved at 160 mg/ml in 100% DMSO and vortexed until complete dissolution. Then the above stock solution was diluted in 20% PEG-400 and 78% 0.9% NaCl, whereby the stock solution comprised 2% of the final solution. Compound 1a was used in concentrations of 0.05, 0.2, 0.8, 1.6 and 3.2 mg/ml which when given in a volume of 10 ml/kg result in doses of 0.5, 2, 8, 16 and 32 mg/kg, respectively. Compound 5a was dissolved at 100 mg/ml in 100% DMSO and vortexed until complete dissolution. Then the above stock solution was diluted in 20% PEG-400 and 78% 0.9% NaCl, whereby the stock solution comprised 2% of the final solution. Compound 5a was used in concentrations of 0.125, 0.25, 0.5, 1 and 2 mg/ml which when given in a volume of 10 ml/kg result in doses of 1.25, 2.5, 5, 10 and 20 mg/kg, respectively.
Memantine was dissolved in saline. Memantine was used in concentration of 0.1 and 0.01 mg/ml, which when given in a volume of 10 ml/kg result in a dose of 1 and 0.1 mg/kg, respectively. Memantine is approved for symptomatic treatment of Alzheimer's disease was used as a reference compound.
LPS was dissolved in saline and prepared at a concentration of 0.0125 mg/ml and given intraperitoneally (i.p.) at a dosage volume of 20 ml/kg to yield a dose of 0.25 mg/kg ([…]).
Four to five weeks old male CD-1 mice (Janvier; Le Genest St Isle - France) were used for the study.
LPS was injected i.p. 2 weeks prior the T-maze trial. Compound 1a was tested at doses of 0.5, 2, 8, 16, and 32 mg/kg administered orally (p.o.) for 14 days with last treatment given 60 min before the T-maze trial. Compound 5a was tested at the doses of 1.25, 2.5, 5, 10, and 20 mg/kg administered orally (p.o.) for 14 days with last treatment given 60 min before the T-maze trial. LPS was injected i.p. 2 weeks prior the T-maze trial.
The T-maze apparatus was made of gray Plexiglas with a main stem (55 cm long×10 cm wide×20 cm high) and two arms (30 cm long×10 cm wide×20 cm high) positioned at a 90-degree angle relative to the main stem. A start box (15 cm long×10 cm wide) was separated from the main stem by a guillotine door. Horizontal doors were also provided to close specific arms during the force choice alternation task.
The experimental protocol consisted of a single session, which started with one “forced-choice” trial, followed by 14 “free-choice” trials. In the “forced-choice” trial, the animal was confined 5 seconds in the start arm and was then released while either the left or right goal arm was blocked by a horizontal door. […]

Prp-TDP43^A315T mice = type: in vivo
Description: Extranuclear accumulation of TDP-43 protein is a pathological hallmark of a number of neurological diseases. […] Male Prp-TDP43^A315T mice (N=10 mice per group) at 3 weeks of age were administered daily treatments of test compounds. Compound A19 was administered via subcutaneous injection, and Compound 5a and Compound 6a were administered via oral gavage. After 2 months of treatment, plasma samples were collected for cytokine quantification. […] Plasma IL-6 and TNF-α cytokine expression levels were determined using the ELISA method. The submandibular vein was punctured with a lancet and a blood drop was collected directly on a microtube containing EDTA as anticoagulant. Samples were centrifuged for 15 minutes at 1000×g at 4° C. within 20 minutes of collection. 20 μl of plasma supernatant was stored at −20° C. before ELISA analysis.
Plasma was diluted at 1:10 in sterile PBS, and IL-6 and TNF-α quantification was performed in duplicate for each animal using 10 μl of sample per well in 96-well plates using the ELISA method (IL-6: Signa-Aldrich Cat #RAB0308, TNF-α: Sigma-Aldrich Cat #RAB0477). Statistical analysis was carried out by 2-way ANOVA with Dunnett's multiple comparisons post-test with compound-treated samples compared to vehicle-treated samples.

[3] = test system: Rat primary cortical neuron cultures; assay: Neuroprotection of rat primary cortical neurons against neurotoxic insults (Cell Titer-Glo viability); type: cell-based; details: for Statistical significance vs. insult control (cell viability): Positive Control MK-801 (1 uM)
From the text: HGF/MET signaling activation is expected to protect cells, including neurons, from cell death. […] Hydrogen peroxide (H2O2) treatment produces toxic oxidative stress. Bacteria-derived lipopolysaccharide (LPS) treatment induces inflammatory cell death. Treatment with excess glutamate (Glut) produces excitotoxicity in neuron cultures. Treatment with 1-methyl-4-phenylpyridinium (MPP^+) causes cell death by inhibition of mitochondrial function.
Cells were then subjected to individual conditional insults for 24 hours at the following concentrations: H2O2 at 1 uM, LPS at 1 uM, glutamate at 25 uM, or MPP+ at 500 uM. All treatments contained recombinant human HGF (R&D Systems) at a concentration of 5 ng/ml. MK-801 (Dizocilpine) is a pore blocker of the N-Methyl-D-aspartate (NMDA) receptor, a glutamate receptor, and was used as a positive control.
Data was normalized to DMSO+HGF control set at 100% cell viability.
Data are reported as statistical significance vs. insult control, with NS=not significant, +=p<0.05, ++=p<0.01, and +++=p<0.001.

[4] = 2 months of treatment, doses as in the value
[5] = insult alone 24 h (H2O2 1 uM, Glutamate 25 uM, LPS 1 uM, MPP+ 500 uM), Compound 1a study, Table 2
[6] = insult alone (H2O2 1 uM, Glutamate 25 uM, LPS 1 uM, MPP+ 500 uM), A19 active metabolite study, Table 3

CCC(C)CN1CC2N(C(=O)c3ccc(OC(F)F)cc3)CCC(=O)N2[C@@H](C)C1=O (some centres unmarked) [Compound 2a]
Significance of neuroprotection vs 1 uM LPS ([1]; dose 0.1 nM): +++ (+++ indicates p<0.001)
Significance of neuroprotection vs 1 uM LPS ([1]; dose 1 nM): +++ (+++ indicates p<0.001)
Significance of neuroprotection vs 1 uM LPS ([1]; dose 10 nM): +++ (+++ indicates p<0.001)
Significance of neuroprotection vs 1 uM LPS ([1]; dose 100 nM): +++ (+++ indicates p<0.001)
Significance of neuroprotection vs 1 uM LPS ([1]; dose 1 μM): +++ (+++ indicates p<0.001)
Protection of primary neurons from LPS-stimulated inflammatory toxicity (in words) [2]: protected primary neurons from LPS-stimulated inflammatory toxicity

CCCCCC(=O)NC(Cc1ccc(OP(=O)(O)O)cc1)C(=O)NC(C(=O)NCCCCCC(N)=O)C(C)CC (centres unmarked) [Compound A19] (Hexanoyl-[pY]-Ile-[Ahx]-NH2; configuration not given here)
Spontaneous alternation (%) Mean (male CD-1 mice; A19 0.125 mg/kg s.c. daily 14 days, 0.125 mg/kg): 42% and 42.1%
Recovery (%) (male CD-1 mice; A19 0.125 mg/kg s.c., 0.125 mg/kg): -12%
Spontaneous alternation (%) Mean (male CD-1 mice; A19 0.25 mg/kg s.c. daily 14 days, 0.25 mg/kg): 60%
Recovery (%) (male CD-1 mice; A19 0.25 mg/kg s.c.): 62%
Spontaneous alternation (%) Mean (male CD-1 mice; A19 0.5 mg/kg s.c. daily 14 days, 0.5 mg/kg): 64% and 64.3%
Recovery (%) (male CD-1 mice; A19 0.5 mg/kg s.c.): 79%
Spontaneous alternation (%) Mean (male CD-1 mice; A19 1 mg/kg s.c. daily 14 days, 1 mg/kg): 61% and 60.7%
Recovery (%) (male CD-1 mice; A19 1 mg/kg s.c.): 65%
Spontaneous alternation (%) Mean (male CD-1 mice; A19 1.25 mg/kg s.c. daily 14 days, 1.25 mg/kg): 61% and 60.7%
Recovery (%) (male CD-1 mice; A19 1.25 mg/kg s.c., 1.25 mg/kg): 58%
Reversal of LPS-induced cognitive deficit in T-maze (result in words) (male CD-1 mice): significant at all doses except at 0.125 mg/kg; also recorded: reversed the LPS-induced cognitive disruption
Significant decrease in plasma cytokine expression after 2 months of treatment: IL-6 (Prp-TDP43^A315T mice; 0.005 mg/kg SC daily): ++++ (++++ = p < 0.0001)
Significant decrease in plasma cytokine expression after 2 months of treatment: TNF-α (Prp-TDP43^A315T mice; 0.005 mg/kg SC daily): ++++ (++++ = p < 0.0001)
Significant decrease in plasma cytokine expression after 2 months of treatment: TNF-α (Prp-TDP43^A315T mice; 0.01 mg/kg SC daily): + (+ = p < 0.05)
Significant decrease in plasma cytokine expression after 2 months of treatment: IL-6 (Prp-TDP43^A315T mice; 0.03 mg/kg SC daily): + (+ = p < 0.05)
Plasma IL-6 expression (result in words) (Prp-TDP43^A315T mice; [4]): significantly reduced TL-6 expression at doses of 0.005, 0.01, and 0.03 mg/kg
Plasma TNF-α expression (result in words) (Prp-TDP43^A315T mice; [4]): significantly reduced TNF-α expression at 0.005 and 0.01 mg/kg

OO [Compound H2O2, Hydrogen peroxide, reference compound]
Insult effect (% viability vs vehicle) [3, 5]: 64.23%
Insult effect (% viability vs vehicle) [3, 6]: 59.35%

N[C@@H](CCC(=O)O)C(=O)O [Glutamate, glutamate, reference compound]
Insult effect (% viability vs vehicle) [3, 5]: 49.55%
Insult effect (% viability vs vehicle) [3, 6]: 54.4%

C[C@]12N[C@H](Cc3ccccc31)c1ccccc12 [MK-801, Dizocilpine, reference compound]
Statistical significance vs. insult control (cell viability) ([3]; Glutamate (25 uM) insult): +++ (+++=p<0.001)
Statistical significance vs. insult control (cell viability) ([3]; H2O2 (1 uM) insult): +++ (+++=p<0.001)
Statistical significance vs. insult control (cell viability) ([3]; LPS (1 uM) insult): +++ (+++=p<0.001)
Statistical significance vs. insult control (cell viability) ([3]; MPP+ (500 uM) insult): +++ (+++=p<0.001)

C[n+]1ccc(-c2ccccc2)cc1 [MPP+, 1-methyl-4-phenylpyridinium, reference compound]
Insult effect (% viability vs vehicle) [3, 5]: 49.85%
Insult effect (% viability vs vehicle) [3, 6]: 54.3%

CC12CC3CC(C)(C1)CC(N)(C3)C2 [Memantine, reference compound]
Reversal of LPS-induced cognitive deficit in T-maze (result in words) (male CD-1 mice): significant at both doses
Spontaneous alternation (%) Mean (male CD-1 mice; Memantine 0.1 mg/kg i.p. daily 14 days): 64% and 63.6%
Recovery (%) (male CD-1 mice; Memantine 0.1 mg/kg i.p.): 76%
Spontaneous alternation (%) Mean (male CD-1 mice; Memantine 1 mg/kg i.p. daily 14 days): 54% and 54.3%
Recovery (%) (male CD-1 mice; Memantine 1 mg/kg i.p.): 38%
